According to ChEMBL document CHEMBL2095176, “GSK Tuberculosis Screening Data”:
Converted amounts (≈) assume the structure as drawn.

Test system: Mycobacterium tuberculosis variant bovis BCG
Experiment: microbe, parasite or virus in culture
Type: functional

| Compound | MIC90 [µM] |
| --- | --- |
| COc1ccc(CNC(=O)c2cnn3c2NC(c2ccc(OC)cc2)CC3C(F)(F)F)cc1 (stereo unspecified) | 9.1 (≈ 4.19 µg/mL) |
| O=C(Nc1nnc(-c2ccc(Cl)cc2)o1)c1ccc(Cl)cc1 | 2.8 (≈ 0.936 µg/mL) |
| FC(F)(F)c1ccc2c(N3CCCNCC3)ncc(-c3ccccc3)c2n1 | 4.8 (≈ 1.79 µg/mL) |
| CCCn1nc(C(=O)N2CCN(c3ccccc3F)CC2)c2ccccc2c1=O | 8.7 (≈ 3.43 µg/mL) |
| COCCNc1nc(N2CCCC2)c2c(c1C#N)CCN(C)C2 | 0.8 (≈ 0.252 µg/mL) |
| c1ccc(Nc2nc(-c3ccccn3)cs2)nc1 | 0.9 (≈ 0.229 µg/mL) |
| c1ccc(SCc2nn3c(-c4ccccc4)nnc3s2)cc1 | 7.5 (≈ 2.43 µg/mL) |
| Cc1ccc(NC(=O)CCC(=O)NNC(=O)c2cccs2)cc1C | 8.3 (≈ 2.87 µg/mL) |
| Cc1ccc(-n2ncc3c(N4CCCNCC4)nc(C4CC4)nc32)cc1 | 3.9 (≈ 1.36 µg/mL) |
| COc1cc(Nc2ccccc2)ccc1NS(=O)(=O)c1ccc(-c2cc(C(F)(F)F)n(C)n2)s1 | 2.8 (≈ 1.42 µg/mL) |
| COc1ccc(Nc2ccccc2NC(=O)c2ccc(O)nc2)cc1 | 9 (≈ 3.02 µg/mL) |
| CC1CCCC(NC(=O)Nc2ccc3snnc3c2)C1C (stereo unspecified) | 3.1 (≈ 0.944 µg/mL) |
| COc1cc(Nc2ccccc2)ccc1NS(=O)(=O)c1c(C)noc1C | 2.9 (≈ 1.08 µg/mL) |
| CCCn1nnnc1NC(=O)c1ccc(Cl)c(Cl)c1 | 7.9 (≈ 2.37 µg/mL) |
| Cc1nc(-c2cccnc2)nc(N2CCCN(Cc3ccc(F)cc3)CC2)c1Cl | 5.5 (≈ 2.27 µg/mL) |
| Cn1cc(-c2noc(CCN[C@H]3CC[C@H](C)CC3)n2)c2ccccc21 | 9.4 (≈ 3.18 µg/mL) |
| Cc1ccc(OCC(=O)Nc2ccc(C(=O)c3c(C)nc4sccn34)cc2)c(C)c1 | 3.9 (≈ 1.64 µg/mL) |
| COc1ccc2sc(Nc3nc(C)n(-c4ccccc4)c(=O)n3)nc2c1 | 9.5 (≈ 3.47 µg/mL) |
| Cc1cccc(Cn2ccc(NC(=O)c3ccc4c(c3)OCO4)n2)c1 | 8.2 (≈ 2.75 µg/mL) |

| Compound | MIC90 [µM] |
| --- | --- |
| Cc1cc(S(=O)(=O)c2ccccc2)cc2c(Nc3ccc(N4CCOCC4)cc3)c(C(N)=O)cnc12 | 8.8 (≈ 4.42 µg/mL) |
| Cc1cc(C)cc(Oc2ncnc(N3CCCC3CN)c2C)c1 (stereo unspecified) | 7.5 (≈ 2.34 µg/mL) |
| CNc1nc(SC)nc2ccccc12 | 0.3 (≈ 0.0616 µg/mL) |
| Cc1cnc(N2CCN[C@@H](Cc3ccccc3)C2)nc1Oc1ccc(-n2ccnc2)cc1.O=C(O)C(F)(F)F | 8.1 |
| Cc1ccc(CNC(=O)c2cnn3c2NC(c2ccc(C)cc2)CC3C(F)F)cc1 (stereo unspecified) | 0.9 (≈ 0.369 µg/mL) |
| O=C(Cn1c(SCc2ccccc2F)nc2ccncc21)Nc1ccc(Br)cc1F | 8.3 (≈ 4.06 µg/mL) |
| Cc1ccc(N2C(=O)NC(=O)C(=Cc3ccc[nH]3)C2=O)cc1 | 8.8 (≈ 2.6 µg/mL) |
| COc1ccc(C2CC(=O)N(Cc3cccc(F)c3)c3ccccc3S2)cc1OC (stereo unspecified) | 5.9 (≈ 2.5 µg/mL) |
| Cc1cc(C)c2cc(CN(Cc3cccnc3)C(=O)c3ccc(F)cc3)c(Cl)nc2c1 | 2.9 (≈ 1.26 µg/mL) |
| Cc1nnc(NCc2cccc(Cl)c2)c2ccccc12 | 1.5 (≈ 0.426 µg/mL) |
| Cc1onc(-c2ccccc2)c1C(=O)Nc1nc(-c2ccccn2)cs1 | 4.3 (≈ 1.56 µg/mL) |
| Cc1ccc(-c2nnc(NC(=O)c3cccc(F)c3)o2)cc1C | 5 (≈ 1.56 µg/mL) |
| Cc1cc2nc(C)n(CCCOc3ccccc3)c2cc1C | 6.1 (≈ 1.8 µg/mL) |
| Cc1cccc2nc(C(=O)Nc3nc(CN4CCC(C)CC4)cs3)cn12 | 2 (≈ 0.739 µg/mL) |
| O=C(/C=C/c1ccccc1)N1CCN(Cc2cccc(OCc3ccccc3)c2)CC1 | 8.3 (≈ 3.42 µg/mL) |
| Cc1ccc2nc(C(F)(F)F)c(C(=O)NCc3ccc(C)o3)n2c1 | 4.4 (≈ 1.48 µg/mL) |
| Cc1nc2c(C)cccn2c1C(=O)NCc1ccc2c(c1)OCO2 | 9.5 (≈ 3.07 µg/mL) |
| Cc1cc(C)c2cc(CN(Cc3cccnc3)C(=O)c3ccccc3F)c(Cl)nc2c1 | 1.7 (≈ 0.738 µg/mL) |
| Cc1ccc(-c2nnc(NC(=O)c3cccc(C(F)(F)F)c3)o2)c(C)c1 | 4.4 (≈ 1.59 µg/mL) |

| Compound | MIC90 [µM] |
| --- | --- |
| Cc1ccc2[nH]c(C3CCCNC3)c(-c3ccncc3)c2c1 (stereo unspecified) | 8.9 (≈ 2.59 µg/mL) |
| CN(C)CCCSc1nc(N2CCCC2)c2c(c1C#N)CCCC2 | 8.5 (≈ 2.93 µg/mL) |
| Cc1c(C(=O)Nc2ccccc2)nnc2cc(-c3ccccc3)nn12 | 3.1 (≈ 1.02 µg/mL) |
| Cc1ccc2c(Cl)c(C(=O)NC3=NCCS3)sc2c1 | 3.8 (≈ 1.18 µg/mL) |
| COc1ccc(-c2nc(CN3CCCC3c3cccs3)cs2)cc1OC (stereo unspecified) | 1.4 (≈ 0.541 µg/mL) |
| Oc1nc(-c2ccccn2)nc(C(F)(F)F)c1Br | 9.6 (≈ 3.07 µg/mL) |
| c1ccc(-c2nnc(Sc3ccnc(N4CCN(c5ccncc5)CC4)n3)n2CCCN2CCOCC2)nc1 | 4.6 (≈ 2.51 µg/mL) |
| CC(C)c1ccc(-c2cncc(N3CCN(c4ccncc4)CC3)n2)cc1 | 5.1 (≈ 1.83 µg/mL) |
| CCCc1ccc(S(=O)(=O)Nc2ccc(CN3CCN(CC4CC4)CC3)cc2)cc1.O=C(O)C(F)(F)F.O=C(O)C(F)(F)F | 8.1 |
| COc1cc(Cc2cnc(N)nc2N)c2cnccc2c1N(C)C | 6.4 (≈ 2.08 µg/mL) |
| O=C(NCCNCc1cc(-c2cncc3ccccc23)cs1)c1ccc(Cl)cc1 | 8.4 (≈ 3.54 µg/mL) |
| c1ccc(Cc2nnc(Sc3ccnc(N4CCN(c5ccncc5)CC4)n3)n2CCN2CCOCC2)cc1 | 9.9 (≈ 5.38 µg/mL) |
| O=C(NC1=NCCS1)c1sc2cc(F)ccc2c1Cl | 8.2 (≈ 2.58 µg/mL) |
| Cn1cc(-c2noc(CCNCCC(C)(C)C)n2)c2ccccc21 | 9.3 (≈ 3.04 µg/mL) |
| Cc1ccc(SCCNC(=O)c2c(-c3ccccc3)noc2C)cc1 | 8.7 (≈ 3.07 µg/mL) |
| CCc1nc(N2CCNCC2)c2c(C)nn(-c3ccc(OC)cc3)c2n1 | 1.1 (≈ 0.388 µg/mL) |
| CCOC(=O)c1cc(-c2csc(Nc3c(C)cc(C)cc3C)n2)on1 | 7.7 (≈ 2.75 µg/mL) |
| COC(=O)c1c(NC(=O)c2c(F)c(F)c(F)c(F)c2F)sc2c1CCCCC2 | 2 (≈ 0.839 µg/mL) |
